Measured values taken from the NIST ThermoML archive (doi:10.1016/j.jct.2008.06.002).
“And” between values parts separate entries of the source, which are not always exact repeats. Identical values can stand only once.

Settings: Liquid

O=C=O [carbon dioxide]
Settings	vapor or sublimation pressure [kPa]
258.44 K	2294
278.25 K	3977
298.84 K	6502.6

CC(F)F [1,1-difluoroethane]
Settings	vapor or sublimation pressure
253.68 K	115.2 kPa
258.44 K	142.2 kPa and 144 kPa
263.39 K	174.9 kPa
268.32 K	213.7 kPa
273.23 K	256.8 kPa
278.19 K	308.1 kPa
278.25 K	311.7 kPa
283.31 K	368.5 kPa
288.27 K	432.9 kPa
293.23 K	506.8 kPa
298.17 K	590.3 kPa
298.84 K	604.4 kPa
303.37 K	687.6 kPa
308.31 K	791 kPa
308.37 K	812.5 kPa
313.19 K	904.5 kPa
318.25 K	1034.8 kPa
323.26 K	1175.4 kPa
323.3 K	1185.5 kPa
328.12 K	1326.8 kPa
333.31 K	1502.3 kPa
338.19 K	1683.5 kPa
343.1 K	1879.6 kPa
343.2 K	1891.7 kPa
348.26 K	2104.6 kPa
